pIC50: −log10 of the molar value. Where two headings read alike, the source gives them in different places. Bounds are passed on as bounds.

Series [1] deals with T1, CYP2C8 (Homo sapiens, UniProt P10632).
T1 construct: from tissue; host or cells: pooled human liver microsomes
T1 sequence (P10632 1-490): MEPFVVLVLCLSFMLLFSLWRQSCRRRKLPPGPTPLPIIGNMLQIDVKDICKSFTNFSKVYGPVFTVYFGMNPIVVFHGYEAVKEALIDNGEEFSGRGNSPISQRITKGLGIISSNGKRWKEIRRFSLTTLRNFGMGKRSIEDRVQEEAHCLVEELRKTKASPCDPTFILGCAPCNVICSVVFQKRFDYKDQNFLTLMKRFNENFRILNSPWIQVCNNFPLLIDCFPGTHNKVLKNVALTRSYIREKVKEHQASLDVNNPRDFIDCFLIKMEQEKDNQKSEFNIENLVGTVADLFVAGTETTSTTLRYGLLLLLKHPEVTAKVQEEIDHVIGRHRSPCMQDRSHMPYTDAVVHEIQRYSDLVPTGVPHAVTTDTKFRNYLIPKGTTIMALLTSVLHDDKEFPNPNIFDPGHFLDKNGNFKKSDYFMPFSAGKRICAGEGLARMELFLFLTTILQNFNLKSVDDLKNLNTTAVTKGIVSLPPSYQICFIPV
The series is described as follows: CYP-direct inhibition, CYP2C8. Type of series: in vitro ADME. Here is the method:
(§1) Many drugs inhibit cytochrome P450 enzymes to cause clinically significant changes in the pharmacokinetics of other drugs. In vitro cytochrome P450 inhibition, can provide crucial information in evaluating potential clinical drug-drug interactions and is useful for focusing in vivo tests to areas of concern. The cytochrome P450 inhibition assay was developed by preparing a working cocktail solution consisting of six probe substrates 10 μM ethoxy-resorufin (CYP1A2), 100 μM rosiglitazone (CYP2C8), 50 μM diclofenac (CYP2C9), 300 μM S-mephenytoin (CYP2C19), 50 μM dextromethorphan (CYP2D6), and 20 μM midazolam (CYP3A4). A mixture solution consists of 140 uL of 0.286 mg/mL of pooled human liver microsome working solution and 20 uL working solutions of test articles, standard control inhibitors, or positive control placebo and 20 uL of substrate cocktail mixture working solution was prepared. The mixture solution was pre-warm in a gentle shaking bath at 37±2° C. for 5 minutes. The enzymatic reaction started by adding 20 uL of NRS working solution to the mixture solution and incubated for 10 minutes at 37±2° C. To stop the reaction, an addition of 400 μL cold stop solution (acetonitrile containing 50 ng/mL Tolbutamide as an internal standard (I.Std.) was added to the mixture solution. The final concentration of test article, inhibitors, substrates, and cofactors are noted in Table 0.1 below. Two individual samples were prepared for each test compound. The extracted samples were vortexed and then centrifuged at 4500 rpm for 7 minutes using Eppendorf Centrifuge 5910R. 200 uL of supernatant was diluting with 200 uL of 50% Methanol into 96-DW plate for LC/MS/MS analysis
(§2) Concentration-response plots are used to determine the effects of an inhibitor on an enzymatic reaction. A typical concentration-response plot provides fractional activity (Y axis) is plotted as a function of log inhibitor concentration (X axis). The data are fitted using a standard Sigmoidal dose-response equation which is also called a […] logistic equation. The concentration of compound that results in 50% inhibition of maximal activity is termed as the IC50 (inhibitor concentration yielding 50% inhibition). IC50 value is calculated using Prism GraphPad software, version 9. […].
(§3) Cytochrome P450 inhibition of a drug is a key factor in determining pharmacokinetic drug-drug interactions. The objective of this study was to evaluate the inhibition potential of G9a inhibitors on six (6) major human cytochrome P450 enzymes, including CYP1A2, CYP2C8, CYP2C9, CYP2C19, CYP2D6, and CYP3A4. Inhibition was determined by using a substrate cocktail and analyzing the rate of specific metabolites formation. The cytochrome P450 inhibition assay was developed using a cocktail consisting of six (6) probe substrates ethoxy-resorufin (CYP1A2), rosiglitazone (CYP2C8), diclofenac (CYP2C9), S-mephenytoin (CYP2C19), dextromethorphan (CYP2D6), and midazolam (CYP3A4). The cocktail was incubated in human liver microsome with NADPH regenerating system (NRS) in a shaking bath at 37±2° C. The formation of specific metabolites was monitored by LC/MS/MS. Test compound was added to the cocktail-liver microsome mixture at varying concentrations and its effect on cytochrome P450 activity was determined by analyzing the rate of specific metabolite formation. The percent inhibition was calculated and plotted with reference to the concentration, and the IC50 value for inhibition was derived by fitting the data with a using log(inhibitor) vs. normalized response with variable slope least squares fit by Graphpad Prism® software. […].

Series [2] in a line: PAMPA permeability. Particulars: PAMPA, 5 hours at RT. A general note: The PAMPA barrier holds no transporters, so it reflects passive diffusion.
Description: Parallel artificial membrane permeability (PAMPA) assay is a non-cell based assay designed to predict in vivo biological membrane permeability of drugs in early stage of drug discovery. […] The Corning Gentest Pre-coated PAMPA plate system was designed by 96-well insert system with a 0.45 μm PVDF (polyvinylidene fluoride) filter plate which has been pre-coated with structured tri-layers of phospholipids (lipid/oil/lipid) and a matched receiver microplate.
Donor solutions of test compounds (300 μL, 20 μM in PBS/MeOH 90:10) were added to each well of the donor plate. 200 μL of PBS/MeOH 90:10 was added to each well of the acceptor plate. The acceptor plate was coupled with the donor plate and incubated for 5 hours at room temperature (RT) without agitation. In each plate, compounds were tested in triplicate. At the end of the incubation, drug concentration in the initial donor solution, acceptor and the donor wells were determined using LC/MS/MS. A five (5) points standard curve from 0.1 to 1000 nM for each test compound were prepared. Analyte samples were diluted to within standard curve concentration with ACN/H2O 50:50 prior analysis.
All samples were analyzed by electrospray ionization (ESI) liquid chromatograph/mass spectrometry (LC/MS) system utilizing Sciex 5500 quadropule ion trap (Qtrap) mass spectrometry with Shidmazu Nexera X2 UHPLC. The LC-MS/MS instrument monitored each of the test compound in the study based of their respective mass-to-charge (m/z) transitions and MS parameters. Chromatographic separation was achieved on Phenomenex Luna C18 column (50×2.0 mm, 3 μm particle size) by using a gradient elution: mobile phase A contains 0.1% formic acid in water and mobile phase B contains 0.1% formic acid in acetonitrile; A/B (99:1) from 0 to 1 minutes; to A/B (1:99) from 1 to 4 minutes; A/B (1:99) from 4 to 8 minutes; to A/B (99:1) from 8 to 8.20 minutes; A/B (99:1) from 8.2 to 9 minutes. The flow rate was 0.4 mL/min and the column temperature was maintained at 35° C. and autosampler temperature at 4° C. For detection, the electrospray ionization operated in the positive mode using multiple reaction monitoring (MRM).
Data acquisition, and peak integrations were obtained by Analyst® Version 1.7.1 (Sciex) operating with Windows® (Microsoft). The standard curve regressions and sample concentrations were generated and calculated by Analyst®. Concentrations in the sample solutions were determined based on the measured peak area ratios from the response of the analyte to the internal standard with reference to the standard calibration curve. All sample calculations were calculated using a linear regression with 1/x^2 weighting (where x is the concentration of given calibration standard level).
Permeability of the test compounds was calculated using the following formula:
The permeability of compounds was evaluated with the parallel artificial membrane permeation assay (PAMPA) as an in vivo model of passive diffusion across a porous filter coated with a lipid/oil/lipid tri-layer artificial membrane. […] Donor solutions of test compounds (300 μL, 20 μM in PBS/MeOH 90:10) were added to each well of the donor plate. 200 μL of PBS/MeOH 90:10 was added to each well of the acceptor plate. The acceptor plate was coupled with the donor plate and incubated for 5 hours at room temperature (RT) without agitation. In each plate, compounds were tested in triplicate. At the end of the incubation, drug concentration in the initial donor solution, acceptor and the donor wells were determined using LC/MS/MS. Permeability of test compounds was calculated based on the formula described in the General Procedures above. The PAMPA permeability classification criteria are categorized into three (3) classes with a high (Pe≥1.5×10−6 cm/s), intermediate (5.5×10−8<Pe<1.5×10−6 cm/s), and low (Pe<5.5×10−8 cm/s) permeability.
In series [3] the target is T2, CYP2D6 (Homo sapiens, UniProt P10635).
T2 construct: from tissue; host or cells: pooled human liver microsomes
T2 sequence (P10635 whole entry): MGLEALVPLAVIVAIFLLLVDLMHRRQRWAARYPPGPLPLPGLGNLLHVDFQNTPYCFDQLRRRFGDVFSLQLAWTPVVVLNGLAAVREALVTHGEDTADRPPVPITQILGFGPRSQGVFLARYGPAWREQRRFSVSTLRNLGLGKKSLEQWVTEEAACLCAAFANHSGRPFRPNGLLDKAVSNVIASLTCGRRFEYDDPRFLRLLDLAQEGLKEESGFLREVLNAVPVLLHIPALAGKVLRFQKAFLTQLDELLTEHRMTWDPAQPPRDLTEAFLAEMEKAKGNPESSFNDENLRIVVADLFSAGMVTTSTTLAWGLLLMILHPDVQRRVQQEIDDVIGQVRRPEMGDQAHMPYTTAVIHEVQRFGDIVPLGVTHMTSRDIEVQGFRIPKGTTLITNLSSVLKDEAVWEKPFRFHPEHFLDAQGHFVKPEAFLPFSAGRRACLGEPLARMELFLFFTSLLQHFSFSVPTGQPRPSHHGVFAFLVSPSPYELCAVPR
Description: CYP-direct inhibition, CYP2D6. Type of series: in vitro ADME. Here is the method: as §1, §2, §3

For series [4], the target named is T3, CYP2C9 (Homo sapiens, UniProt P11712).
T3 construct: from tissue; host or cells: pooled human liver microsomes
T3 sequence (P11712 whole entry): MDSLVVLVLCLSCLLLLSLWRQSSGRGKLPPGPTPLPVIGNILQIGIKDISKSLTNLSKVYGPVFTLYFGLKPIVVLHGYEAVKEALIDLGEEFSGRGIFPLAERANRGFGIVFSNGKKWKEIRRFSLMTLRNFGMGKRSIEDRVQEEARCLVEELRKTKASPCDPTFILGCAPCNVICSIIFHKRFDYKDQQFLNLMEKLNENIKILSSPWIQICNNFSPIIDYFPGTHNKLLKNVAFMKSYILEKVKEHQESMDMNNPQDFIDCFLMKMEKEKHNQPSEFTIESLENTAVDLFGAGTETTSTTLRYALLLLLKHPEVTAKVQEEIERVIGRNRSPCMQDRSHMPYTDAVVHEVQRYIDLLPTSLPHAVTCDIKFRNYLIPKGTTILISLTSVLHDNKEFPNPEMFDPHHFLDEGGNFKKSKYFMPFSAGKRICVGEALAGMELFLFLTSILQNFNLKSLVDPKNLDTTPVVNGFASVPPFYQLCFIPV
Description: CYP-direct inhibition, CYP2C9. Type of series: in vitro ADME. The procedure: as §1, §2, §3

Setting [5] is: PAMPA permeability Classification, 20 μM donor.
[6] abbreviates: Permeability, Pe, 20 μM donor in PBS/MeOH 90:10.
Where [7] appears, read: human liver microsome, substrate dextromethorphan, read-out: IC50 CYP-2D6.

As a reminder, the pIC50 is the negative decadic logarithm of the IC50, by convention in mol/L. What is called Papp is a coefficient for how fast a substance crosses the barrier. `COc1cc2c(NC3CCS(=O)(=O)CC3)nc(N3CCCN(C)CC3)nc2cc1OCCCN1CCCC1` [Compound 110, 4-((6-methoxy-2-(4-methyl-1,4-diazepan-1-yl)-7-(3-(pyrrolidin-1-yl)propoxy)quinazolin-4-yl)amino)tetrahydro-2H-thiopyran 1,1-dioxide]: the pIC50 in series [1], in series [3] (setting [7]) and in series [4] was under 4.00 in each case. The Papp at 5 h, 20 μM was under 0.055 ×10⁻⁶ cm/s in series [2] (setting [5]) and 0.00676 ×10⁻⁶ cm/s in series [2] (setting [6]).

Consider `COc1cc2c(NC3CCN(C(C)C)CC3)nc(-n3cccn3)nc2cc1OCCCN1CCCC1` [Compound 157, N-(1-isopropylpiperidin-4-yl)-6-methoxy-2-(1H-pyrazol-1-yl)-7-(3-(pyrrolidin-1-yl)propoxy)quinazolin-4-amine], for which the results for the pIC50 in series [1], in series [3] (setting [7]) and in series [4] were under 4.00, 4.19 and under 4.00, respectively. Besides, the Papp at 5 h, 20 μM in series [2] (setting [5]) is under 0.055 ×10⁻⁶ cm/s; in series [2] (setting [6]) it was 0.000555 ×10⁻⁶ cm/s.

Regarding `COc1cc2c(NC3CCOCC3)nc(N3CCCC3)nc2cc1OCCCN1CCCC1` [Compound 164, 6-methoxy-2-(pyrrolidin-1-yl)-7-(3-(pyrrolidin-1-yl)propoxy)-N-(tetrahydro-2H-pyran-4-yl)quinazolin-4-amine], the pIC50 in series [1] is 4.04; in series [3] (setting [7]), 4.61; in series [4] it was under 4.00. The values for the Papp at 5 h, 20 μM in series [2] (setting [5]) and in series [2] (setting [6]) were under 0.055 ×10⁻⁶ cm/s and 0.0476 ×10⁻⁶ cm/s, respectively.

Turning to `COc1cc2c(NC3CCNCC3)nc(N3CCC(F)(F)CC3)nc2cc1OCCCN1CCCC1` [Compound 8, 2-(4,4-difluoropiperidin-1-yl)-6-methoxy-N-(piperidin-4-yl)-7-(3-(pyrrolidin-1-yl)propoxy)quinazolin-4-amine], the negative-log IC50 (pIC50) in series [1], in series [3] (setting [7]) and in series [4] was under 4.00 throughout. Moreover, the Papp at 5 h, 20 μM was under 0.055 ×10⁻⁶ cm/s in series [2] (setting [5]) and 0.00173 ×10⁻⁶ cm/s in series [2] (setting [6]).

With `COc1cc2c(NC3CCOCC3)nc(N3CCOCC3)nc2cc1OCCCN1CCCC1` [Compound 195, 6-methoxy-2-morpholino-7-(3-(pyrrolidin-1-yl)propoxy)-N-(tetrahydro-2H-pyran-4-yl)quinazolin-4-amine], the pIC50 in series [1], in series [3] (setting [7]) and in series [4] was under 4.00 each time. For the same molecule, the apparent permeability (Papp) at 5 h, 20 μM in series [2] (setting [5]) was 0.055 to 1.5 ×10⁻⁶ cm/s; in series [2] (setting [6]), 0.238 ×10⁻⁶ cm/s.

Take `COc1cc2c(NCC3CCN(C)CC3)nc(N3CCC(F)(F)CC3)nc2cc1OCCCN1CCCC1` [Compound 5, 2-(4,4-difluoropiperidin-1-yl)-6-methoxy-N-((1-methylpiperidin-4-yl)methyl)-7-(3-(pyrrolidin-1-yl)propoxy)quinazolin-4-amine]: the pIC50 in series [1], in series [3] (setting [7]) and in series [4] was under 4.00 in each case. Besides, the results for the Papp at 5 h, 20 μM in series [2] (setting [5]) and in series [2] (setting [6]) were under 0.055 ×10⁻⁶ cm/s and 0.00649 ×10⁻⁶ cm/s, respectively.

Turning to `COc1cc2c(NC3CCS(=O)(=O)CC3)nc(N3CCC(F)(F)CC3)nc2cc1C#CCN1CCCC1` [Compound 248, 4-((2-(4,4-difluoropiperidin-1-yl)-6-methoxy-7-(3-(pyrrolidin-1-yl)prop-1-yn-1-yl)quinazolin-4-yl)amino)tetrahydro-2H-thiopyran 1,1-dioxide], the values for the negative logarithm of the IC50 (pIC50) in series [1], in series [3] (setting [7]) and in series [4] were 4.37, 4.25 and under 4.00, respectively. Besides, the apparent permeability coefficient (Papp) at 5 h, 20 μM in series [2] (setting [5]) was 0.055 to 1.5 ×10⁻⁶ cm/s; in series [2] (setting [6]) it was 1.32 ×10⁻⁶ cm/s.

Regarding `COc1cc2c(NC3CCN(C(C)C)CC3)nc(N3CCC3)nc2cc1OCCCN1CCCC1` [Compound 234, 2-(azetidin-1-yl)-N-(1-isopropylpiperidin-4-yl)-6-methoxy-7-(3-(pyrrolidin-1-yl)propoxy)quinazolin-4-amine], the figures for the pIC50 in series [1], in series [3] (setting [7]) and in series [4] were under 4.00, 4.11 and under 4.00, respectively. The apparent permeability (Papp) at 5 h, 20 μM is under 0.055 ×10⁻⁶ cm/s in series [2] (setting [5]) and 0.000285 ×10⁻⁶ cm/s in series [2] (setting [6]).

For `COc1cc2c(NCC(N)=O)nc(N3CCC(F)(F)CC3)nc2cc1OCCCN1CCCC1` [Compound 9, 2-((2-(4,4-difluoropiperidin-1-yl)-6-methoxy-7-(3-(pyrrolidin-1-yl)propoxy)quinazolin-4-yl)amino)acetamide], the negative logarithm of the IC50 (pIC50) in series [1], in series [3] (setting [7]) and in series [4] was under 4.00 throughout. Also, the Papp at 5 h, 20 μM in series [2] (setting [5]) is under 0.055 ×10⁻⁶ cm/s; in series [2] (setting [6]), 0.00981 ×10⁻⁶ cm/s.

Turning to `COCCN1CCC(Nc2nc(N3CCC(F)(F)CC3)nc3cc(OCCCN4CCCC4)c(OC)cc23)CC1` [Compound 3, 2-(4,4-difluoropiperidin-1-yl)-6-methoxy-N-(1-(2-methoxyethyl)piperidin-4-yl)-7-(3-(pyrrolidin-1-yl)propoxy)quinazolin-4-amine], the pIC50 in series [1] was under 4.00; in series [3] (setting [7]), 5.02; in series [4] it was under 4.00. For the same molecule, the results for the Papp at 5 h, 20 μM in series [2] (setting [5]) and in series [2] (setting [6]) were 0.055 to 1.5 ×10⁻⁶ cm/s and 0.451 ×10⁻⁶ cm/s, respectively.

`COc1cc2c(NC3CCOCC3)nc(N3CCS(=O)(=O)CC3)nc2cc1OCCCN1CCCC1` [Compound 196, 4-(6-methoxy-7-(3-(pyrrolidin-1-yl)propoxy)-4-((tetrahydro-2H-pyran-4-yl)amino)quinazolin-2-yl)thiomorpholine 1,1-dioxide]: the pIC50 in series [1] was under 4.00; in series [3] (setting [7]) it was 4.07; in series [4], under 4.00. The apparent permeability coefficient (Papp) at 5 h, 20 μM in series [2] (setting [5]) is under 0.055 ×10⁻⁶ cm/s; in series [2] (setting [6]), 0.035 ×10⁻⁶ cm/s.

Consider `COc1cc2c(NC3CCS(=O)(=O)CC3)nc(N3CCC(F)(F)CC3)nc2cc1OCCCN1CCCC1` [Compound 1, 4-((2-(4,4-difluoropiperidin-1-yl)-6-methoxy-7-(3-(pyrrolidin-1-yl)propoxy)quinazolin-4-yl)amino)tetrahydro-2H-thiopyran 1,1-dioxide], for which the pIC50 in series [1] was 4.05; in series [3] (setting [7]), 4.66; in series [4], under 4.00. The Papp at 5 h, 20 μM in series [2] (setting [5]) is under 0.055 ×10⁻⁶ cm/s; in series [2] (setting [6]) it was 0.0441 ×10⁻⁶ cm/s.

For `COc1cc2c(NC3CCN(C(C)C)CC3)nc(N3CCC(F)(F)CC3)nc2cc1OCCCN1CCCC1` [Compound 400, 2-(4,4-difluoropiperidin-1-yl)-N-(1-isopropylpiperidin-4-yl)-6-methoxy-7-(3-(pyrrolidin-1-yl)propoxy)quinazolin-4-amine, reference compound], the pIC50 in series [1] was under 4.00; in series [3] it was 4.54; in series [4] it was under 4.00.

For the molecule `COc1cc2c(NC3CCS(=O)(=O)CC3)nc(N3CCN(C)CC3)nc2cc1OCCCN1CCCC1` [Compound 109, 4-((6-methoxy-2-(4-methylpiperazin-1-yl)-7-(3-(pyrrolidin-1-yl)propoxy)quinazolin-4-yl)amino)tetrahydro-2H-thiopyran 1,1-dioxide], the negative-log IC50 (pIC50) in series [1], in series [3] (setting [7]) and in series [4] was under 4.00 each time. The Papp at 5 h, 20 μM in series [2] (setting [5]) was under 0.055 ×10⁻⁶ cm/s; in series [2] (setting [6]), 0.00475 ×10⁻⁶ cm/s.
